According to doi:10.1101/2020.08.04.236091v1 (biorxiv, 2020):
pEC50: −log10 of the molar value.

These molecules were tested against T1, MdomOR30a (co-expressed with MdomOrco) (Musca domestica, UniProt A0A1I8MP03) (assay: two-electrode voltage clamp, Xenopus oocytes, odorant-induced currents).
T1 sequence (A0A1I8MP03 1-373): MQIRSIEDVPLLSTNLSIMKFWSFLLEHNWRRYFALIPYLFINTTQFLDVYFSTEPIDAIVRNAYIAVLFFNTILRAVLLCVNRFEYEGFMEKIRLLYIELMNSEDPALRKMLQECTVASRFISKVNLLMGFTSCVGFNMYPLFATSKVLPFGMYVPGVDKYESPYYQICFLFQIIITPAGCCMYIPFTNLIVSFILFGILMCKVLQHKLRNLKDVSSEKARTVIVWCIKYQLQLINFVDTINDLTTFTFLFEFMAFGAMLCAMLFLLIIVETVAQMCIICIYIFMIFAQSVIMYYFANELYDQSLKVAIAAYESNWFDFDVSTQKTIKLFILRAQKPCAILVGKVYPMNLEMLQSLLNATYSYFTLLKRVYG
T1 sequence (I0E1X6 1-478 partner): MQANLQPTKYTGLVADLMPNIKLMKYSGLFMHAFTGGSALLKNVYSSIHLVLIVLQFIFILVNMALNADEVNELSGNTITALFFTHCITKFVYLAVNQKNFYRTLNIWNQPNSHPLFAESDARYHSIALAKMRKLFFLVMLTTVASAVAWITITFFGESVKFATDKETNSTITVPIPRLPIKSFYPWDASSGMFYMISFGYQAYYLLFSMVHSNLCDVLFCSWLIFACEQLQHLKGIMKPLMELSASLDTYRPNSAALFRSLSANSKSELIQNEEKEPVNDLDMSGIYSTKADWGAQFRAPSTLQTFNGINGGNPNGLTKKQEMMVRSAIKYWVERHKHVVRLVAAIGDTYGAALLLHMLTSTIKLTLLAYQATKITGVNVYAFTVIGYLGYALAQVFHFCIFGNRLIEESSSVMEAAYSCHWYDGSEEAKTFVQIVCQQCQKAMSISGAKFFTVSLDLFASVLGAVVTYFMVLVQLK
Type: cell-based

Row | pEC50 | Structure (SMILES)
1 | 6.48 | Cc1c[nH]c2ccccc12 [3-methylindole]
2 | 5.28 | c1ccc2[nH]ccc2c1 [indole]
3 | 5.15 | Cc1[nH]c2ccccc2c1C [2,3-dimethylindole]
